Experimental data reported in patent US12077503B2, “Substituted cyclic amides and their use as herbicides” (FMC CORPORATION, priority 2015, dated 2024).

Experiments:
Assay type in all cases: in vivo
[1] = test system: ryegrass, Italian (Italian ryegrass, Lolium multiflorum); assay: Test A preemergence; conditions: Lolium multiflorum, pre-emergence, 240 h, 0 to 100 scale where 0 is no effect and 100 is complete control, read-out: Ryegrass, Italian plant response rating
Method in brief: (§1)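 Visual injury, scored on a 0–100 scale relative to untreated controls, was recorded about 10 d after application. Treatments were a preemergence soil spray over planted seeds or a postemergence spray on plants at the one- to two-leaf stage, 2 to 10 cm tall, all in loam soil–sand blend in the greenhouse.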

[2] = test system: barnyardgrass (Echinochloa crus-galli); assay: Test A preemergence; conditions: Echinochloa crus-galli, pre-emergence, 240 h, 0 to 100 scale where 0 is no effect and 100 is complete control, read-out: Barnyardgrass plant response rating
Method in brief: as §1

Kochia (Kochia scoparia) [3] = assay: Test A preemergence; conditions: Bassia scoparia, pre-emergence, 240 h, 0 to 100 scale where 0 is no effect and 100 is complete control, read-out: Kochia plant response rating
Method in brief: as §1

[4] = test system: ragweed (common ragweed, Ambrosia elatior); assay: Test A preemergence; conditions: Ambrosia artemisiifolia, pre-emergence, 240 h, 0 to 100 scale where 0 is no effect and 100 is complete control, read-out: Ragweed plant response rating
Method in brief: as §1

[5] = test system: pigweed (Amaranthus retroflexus); assay: Test A preemergence; conditions: Amaranthus retroflexus, pre-emergence, 240 h, 0 to 100 scale where 0 is no effect and 100 is complete control, read-out: Pigweed plant response rating
[6] = test system: giant foxtail (Setaria faberii); assay: Test A preemergence; conditions: Setaria faberi, pre-emergence, 240 h, 0 to 100 scale where 0 is no effect and 100 is complete control, read-out: Foxtail, Giant plant response rating
Method in brief: as §1

[7] = test system: barnyardgrass (Echinochloa crus-galli); assay: Test B flooded paddy test; conditions: Echinochloa crus-galli, 250 g ai/ha, Flood; 0 to 100 scale where 0 is no effect and 100 is complete control; read-out: Barnyardgrass plant response rating
Method in brief: (§2)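 Response scored visually against untreated controls, 0 = no effect and 100 = complete control, 13–15 d after treatment in the greenhouse. Compounds added to paddy water held 3 cm above soil surface. Treatment given at 2-leaf stage.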

rice (Oryra sativa) = assay: Test B flooded paddy test; conditions: Oryza sativa, 250 g ai/ha, Flood; 0 to 100 scale where 0 is no effect and 100 is complete control; read-out: Rice plant response rating
Method in brief: as §2

[8] = test system: sedge, umbrella (small-flower umbrella sedge, Cyperus difformis); assay: Test B flooded paddy test; conditions: Cyperus difformis, 250 g ai/ha, Flood; 0 to 100 scale where 0 is no effect and 100 is complete control; read-out: Sedge, Umbrella plant response rating
Method in brief: as §2

[9] = test system: ducksalad (Heteranthera limosa); assay: Test B flooded paddy test; conditions: Heteranthera limosa, 250 g ai/ha, Flood; 0 to 100 scale where 0 is no effect and 100 is complete control; read-out: Ducksalad plant response rating
Method in brief: as §2

[10] = test system: ryegrass, Italian (Italian ryegrass, Lolium multiflorum); assay: Test A postemergence; conditions: Lolium multiflorum, post-emergence, 240 h
Method in brief: as §1

[11] = test system: barnyardgrass (Echinochloa crus-galli); assay: Test A postemergence; conditions: Echinochloa crus-galli, post-emergence, 240 h
Method in brief: as §1

Kochia (Kochia scoparia) [12] = assay: Test A postemergence; conditions: Bassia scoparia, post-emergence, 240 h
Method in brief: as §1

[13] = test system: Galium (catchweed bedstraw, Galium aparine); assay: Test A postemergence; conditions: Galium, post-emergence, 240 h
Method in brief: as §1

corn (Zea mays) = assay: Test A postemergence; conditions: Zea mays, post-emergence, 240 h
Method in brief: as §1

[14] = test system: ragweed (common ragweed, Ambrosia elatior); assay: Test A postemergence; conditions: Ambrosia artemisiifolia, post-emergence, 240 h
Method in brief: as §1

[15] = test system: pigweed (Amaranthus retroflexus); assay: Test A postemergence; conditions: Amaranthus retroflexus, post-emergence, 240 h
Method in brief: as §1

[16] = test system: giant foxtail (Setaria faberii); assay: Test A postemergence; conditions: Setaria faberi, post-emergence, 240 h
Method in brief: as §1

[17] = test system: blackgrass (Alopecurus myosuroides); assay: Test A postemergence; conditions: Alopecurus myosuroides, post-emergence, 240 h
Method in brief: as §1

[18] = test system: wheat (Triticum aestivum); assay: Test A postemergence; conditions: Triticum aestivum, post-emergence, 240 h
Method in brief: as §1

[19] = 125 g ai/ha, preemergence, approx. 10 d

CN1C[C@H](c2cc(C(F)F)cs2)[C@@H](C(=O)Nc2ccccc2S(C)(=O)=O)C1=O [Compound 1084]
pest or weed control at 31 g/ha ([1]; 31 g ai/ha, Preemergence): 0% | pest or weed control at 125 g/ha [1, 19]: 10% | pest or weed control at 31 g/ha ([2]; 31 g ai/ha, Preemergence): 0% | pest or weed control at 125 g/ha [2, 19]: 70% | pest or weed control at 31 g/ha (Kochia (Kochia scoparia) [3]; 31 g ai/ha, Preemergence): 0% | pest or weed control at 125 g/ha (Kochia (Kochia scoparia) [3]; [19]): 20% | pest or weed control at 31 g/ha ([4]; 31 g ai/ha, Preemergence): 0% | pest or weed control at 125 g/ha [4, 19]: 10% | pest or weed control at 31 g/ha ([5]; 31 g ai/ha, Preemergence): 0% | pest or weed control at 125 g/ha [5, 19]: 0% | pest or weed control at 31 g/ha ([6]; 31 g ai/ha, Preemergence): 30% | pest or weed control at 125 g/ha [6, 19]: 100% | pest or weed control at 250 g/ha [7]: 75% | pest or weed control at 250 g/ha (rice (Oryra sativa)): 20% | pest or weed control at 250 g/ha [8]: 0% | pest or weed control at 250 g/ha [9]: 100% | pest or weed control at 125 g/ha ([10]; 125 g ai/ha, postemergence, visual injury on 0 to 100 scale (0 no effect, 100 complete control), approx. 10 d, read-out: Ryegrass, Italian plant response rating): 0% | pest or weed control at 31 g/ha ([10]; Postemergence, 31 g ai/ha, visual injury after approx. 10 d, 0 to 100 scale, 0 no effect, 100 complete control, read-out: Plant response rating, Ryegrass, Italian): 0% | pest or weed control at 125 g/ha ([11]; 125 g ai/ha, postemergence, visual injury on 0 to 100 scale (0 no effect, 100 complete control), approx. 10 d, read-out: Barnyardgrass plant response rating): 60% | pest or weed control at 31 g/ha ([11]; Postemergence, 31 g ai/ha, visual injury after approx. 10 d, 0 to 100 scale, 0 no effect, 100 complete control, read-out: Plant response rating, Barnyardgrass): 10% | pest or weed control at 125 g/ha (Kochia (Kochia scoparia) [12]; 125 g ai/ha, postemergence, visual injury on 0 to 100 scale (0 no effect, 100 complete control), approx. 10 d, read-out: Kochia plant response rating): 30% | pest or weed control at 31 g/ha (Kochia (Kochia scoparia) [12]; Postemergence, 31 g ai/ha, visual injury after approx. 10 d, 0 to 100 scale, 0 no effect, 100 complete control, read-out: Plant response rating, Kochia): 0% | pest or weed control at 125 g/ha ([13]; 125 g ai/ha, postemergence, visual injury on 0 to 100 scale (0 no effect, 100 complete control), approx. 10 d, read-out: Galium plant response rating): 0% | pest or weed control at 31 g/ha ([13]; Postemergence, 31 g ai/ha, visual injury after approx. 10 d, 0 to 100 scale, 0 no effect, 100 complete control, read-out: Plant response rating, Galium): 0% | plant injury at 125 g/ha (corn (Zea mays); 125 g ai/ha, postemergence, visual injury on 0 to 100 scale (0 no effect, 100 complete control), approx. 10 d, read-out: Corn plant response rating): 0% | Corn plant response rating (crop injury, 0 = no effect, 100 = complete kill) at 31 g/ha (corn (Zea mays); Postemergence, 31 g ai/ha, visual injury after approx. 10 d, 0 to 100 scale, 0 no effect, 100 complete control): 0% | pest or weed control at 125 g/ha ([14]; 125 g ai/ha, postemergence, visual injury on 0 to 100 scale (0 no effect, 100 complete control), approx. 10 d, read-out: Ragweed plant response rating): 0% | pest or weed control at 31 g/ha ([14]; Postemergence, 31 g ai/ha, visual injury after approx. 10 d, 0 to 100 scale, 0 no effect, 100 complete control, read-out: Plant response rating, Ragweed): 0% | pest or weed control at 125 g/ha ([15]; 125 g ai/ha, postemergence, visual injury on 0 to 100 scale (0 no effect, 100 complete control), approx. 10 d, read-out: Pigweed plant response rating): 0% | pest or weed control at 31 g/ha ([15]; Postemergence, 31 g ai/ha, visual injury after approx. 10 d, 0 to 100 scale, 0 no effect, 100 complete control, read-out: Plant response rating, Pigweed): 0% | pest or weed control at 125 g/ha ([16]; 125 g ai/ha, postemergence, visual injury on 0 to 100 scale (0 no effect, 100 complete control), approx. 10 d, read-out: Foxtail, Giant plant response rating): 50% | pest or weed control at 31 g/ha ([16]; Postemergence, 31 g ai/ha, visual injury after approx. 10 d, 0 to 100 scale, 0 no effect, 100 complete control, read-out: Plant response rating, Foxtail, Giant): 0% | pest or weed control at 125 g/ha ([17]; 125 g ai/ha, postemergence, visual injury on 0 to 100 scale (0 no effect, 100 complete control), approx. 10 d, read-out: Blackgrass plant response rating): 20% | pest or weed control at 31 g/ha ([17]; Postemergence, 31 g ai/ha, visual injury after approx. 10 d, 0 to 100 scale, 0 no effect, 100 complete control, read-out: Plant response rating, Blackgrass): 0% | plant injury at 125 g/ha ([18]; 125 g ai/ha, postemergence, visual injury on 0 to 100 scale (0 no effect, 100 complete control), approx. 10 d, read-out: Wheat plant response rating): 20% | plant injury at 31 g/ha ([18]; Postemergence, 31 g ai/ha, visual injury after approx. 10 d, 0 to 100 scale, 0 no effect, 100 complete control, read-out: Plant response rating, Wheat): 0%
